# Measured values from patent publication US6406679B1, “Use of HL-60-related lectins in drug delivery and detection of lectin-expressing cells” (Incyte Pharmaceuticals, Inc., priority 1992, dated 2002).
# Where “and” joins values, the source holds several entries; their conditions need not be identical. Identical values can stand only once.
# What was measured:
# mice immunized with AChR = assay: EAMG: muscle acetylcholine receptor content and Ig-complexed AChR; type: in vivo, mouse; conditions: for % of AChR Complexed with Ig / Carcass AChR Content: 10 days after injection
# Experimental: After the observation period, the animals were sacrificed, skinned, and eviscerated; and a cholinergic receptor (AChR) extract was prepared as described by Lefvert, A. K. et al., Scand. J. Immunol. supra for determination of total AChR content and Ig-complexed AChR content, as described therein.
# Briefly, to determine total AChR content, known portions of the AChR extracts were incubated with a ten-fold excess of ^125I-alpha-bungarotoxin for 1 hour at 37° C. so as to label the receptor for quantitation. The mixture was subjected to gel filtration on Sephacryl G200 to separate free and bound toxin. To determine the amount of AChR complexed to IgG or IgM antibodies, the extract was incubated with a ten-fold excess of labeled bungarotoxin overnight at 4° C.; anti-mouse IgG or IgM was then added and the samples incubated overnight at 4° C., followed by separation of the precipitates, washing and counting.
# BALB/c mice = assay: Primary immune response: serum antibody levels; type: in vivo, mouse
# Experimental: The effect of coadministration of lectin on the B-cell repertoire mounted as a primary response to immunization was also tested directly by antibody formation in the sera. Immunoassays for antibody content for the various antigens were performed as follows:
# For immunization with Torpedo acetylcholine receptor, microtiter: wells were coated overnight with 100 μl of a solution containing 5 μg/ml of purified receptor as prepared in Example 8, Part A, and incubated with serum (diluted 1/25) for 3 hours at 37° C. After washing, the plates were incubated for 3 hours at 37° C. with alkaline phosphatase-conjugated goat anti-mouse immunoglobulins. The plates were then washed extensively and incubated for 1 hour at 37° C. with […] ethanolamine buffer. The reaction was stopped by addition of 25 μl of 3 M NaOH, and the binding of the labeled antibody was measured in an ELISA microreader at 405 nm. […]
# For antibodies against mouse AChR, antibodies were determined using as antigen a complex between a partially purified normal mouse skeletal muscle receptor and ^125I-alpha-bungarotoxin. […]
# . […] The reaction was stopped by addition of 25 μl of 3 M NaOH, and the binding of the labeled antibody was measured in an ELISA microreader at 405 nm. […]
# . Blood was obtained after 3 days and again after 1, 2, 3 and 4 weeks and antibody levels were determined as described above.
# lymph node cells [1] = assay: Response of lymph node cells to the lectin (mitogenicity); type: cell-based, rat; conditions: data not shown
# [2] = Antibodies specific for the lectin in sera of treated rats (ELISA); type: in vivo, rat
# SJL/J mice = assay: EAE relapse murine model; type: in vivo, mouse; conditions: 50 μg i.v. days 13 and 15, 100 μg i.v. daily days 18-24, FIG. 13
# Text: In mice, symptoms of EAE can be made to occur in cyclical fashion by boosting the animals with antigen following each cycle, and each cycle becomes more severe until death ultimately occurs. This is a useful model in which to determine therapeutic efficacy, since it closely mimics both the chronic disease relapses and the acute demyelination associated with multiple sclerosis. In this experiment, 20 female SJL/J mice were immunized with lyophilized spinal cord extract dissolved in PBS plus CFA on days 0, 7 and 21. Ten mice were injected with recombinant lectin, and ten mice were given buffer only. The lectin-treated mice received 50 μg lectin on days 13 and 15 intravenously in the tail vein, and an additional 100 μg i.v. daily from day 18 through day 24. Mice were followed until death or sacrifice at day 42.
# The results in FIG. 13 are mean clinical scores for control and lectin-treated mice.
# Lewis rats = assay: Skin allografts (Brown Norway skin on Lewis rats); type: in vivo, rat; parameters: key to Hair Growth / Hair Growth, Mean + SD column: whether or not (+ or −) hair growth was restored in the tissue; whether or not (+ or −) hair growth was restored in the tissue
# Experimental: The work in this report was done in the laboratory of Drs. Arthur Vandenbark and Halina Offner at the Oregon VA Medical Center. Brown Norway rat skin was transplanted onto the back of Lewis rats. Identical grafts were done on both sides of each animal's back and the results of each side (separated by commas) were shown for each parameter in Tables 9 and 10. […] A 250 μg/animal dose of lectin was administered i.v. daily on days 2-17.
# The protocols for the studies reported in Tables 9 and 10 differed only in that the lectin was delivered for four additional days up to day 21 (see Table 10).
# lymph node cells [3] = assay: In vivo effect of lectin on phenotypes of lymphocytes (antibody staining); parameters: species or system rat; conditions: for % positive / F^L / % CHANGE IN POSITIVES: Lymph Node Cells
# [4] = Day 2 to Day 17, individual animals, first-listed graft side, listed as rIML-1
# [5] = Day 2 to Day 17, individual animals, second-listed graft side, listed as rIML-1
# [6] = Day 2 to Day 21, individual animals, first-listed graft side, listed as rIML-1
# [7] = Day 2 to Day 21, individual animals, second-listed graft side, listed as rIML-1
# [8] = antibody IgG, lectin-treated rats
substance,measurement,setting,value
"Lectin: Soluble 14 kD β-galactoside-binding HL-60/placenta lectin of FIG. 1 (SEQ ID NO:2), prepared recombinantly in E. coli",% of AChR Complexed with Ig,mice immunized with AChR; AChR + lectin 0.1 μg,48 ± 6.0%
same,Carcass AChR Content,mice immunized with AChR; AChR + lectin 0.1 μg,0.8 ± 0.4 mol × 10^−11
same,% of AChR Complexed with Ig,mice immunized with AChR; AChR + lectin 1 μg,52 ± 2.0%
same,Carcass AChR Content,mice immunized with AChR; AChR + lectin 1 μg,1.4 ± 0.3 mol × 10^−11
same,% of AChR Complexed with Ig,mice immunized with AChR; AChR + lectin 5 μg,44 ± 5.0%
same,Carcass AChR Content,mice immunized with AChR; AChR + lectin 5 μg,0.9 ± 0.5 mol × 10^−11
same,% of AChR Complexed with Ig,mice immunized with AChR; AChR + lectin 15 μg,11 ± 10.7%
same,Carcass AChR Content,mice immunized with AChR; AChR + lectin 15 μg,3.5 ± 0.4 mol × 10^−11
same,% of AChR Complexed with Ig,mice immunized with AChR; AChR + lectin 25 μg,11 ± 7.8%
same,Carcass AChR Content,mice immunized with AChR; AChR + lectin 25 μg,3.2 ± 0.6 mol × 10^−11
same,AChR loss and amount of Ig-complexed AChR,mice immunized with AChR; single subcutaneous doses of about 7.5-12 μg,lowered
same,primary immune response to pneumococcal polysaccharide (T-independent antigen),"BALB/c mice; any dose, FIG. 7",No effect
same,primary immune response to T-dependent antigens,"BALB/c mice; higher doses of lectin (15 and 25 μg), FIGS. 6, 8, 9",significantly lowered
same,mitogenicity for lymph node cells,lymph node cells [1],not mitogenic
same,antibodies specific for the lectin in sera of treated rats,[2],did not contain
same,"mean clinical scores, first cycle",SJL/J mice,improved clinical scores
same,"survival and clinical scores, second cycle",SJL/J mice,improved survival and clinical scores
same,delay of rejection of the grafts,"Lewis rats; 250 μg/animal i.v. daily days 2-17, versus control",7 days
same,"Rejection (on day), Mean ± SD",Lewis rats; Day 2 to Day 17,17 ± 2 days
same,Degeneration (on day),Lewis rats; [4],"15 day and 11, day and 14 day"
same,Hair Growth,Lewis rats; [4],"+, + (3×) and − and +"
same,Rejection (on day),Lewis rats; [4],"16 day and 13, day and 16, day and 18, day (2×)"
same,Degeneration (on day),Lewis rats; [5],16 day (2×) and 13 day
same,Hair Growth,Lewis rats; [5],"+, + (3×) and +"
same,Rejection (on day),Lewis rats; [5],17 day and 15 day and 16 day and 18 day (2×)
same,Histology,"Lewis rats; Day 2 to Day 17, individual animals, listed as rIML-1",0
same,"Degeneration (on day), Mean + SD",Lewis rats; Day 2 to Day 21,17 ± 2 days
same,"Hair Growth, Mean + SD column",Lewis rats; Day 2 to Day 21,+
same,"Rejection (on day), Mean + SD",Lewis rats; Day 2 to Day 21,19 ± 2 days
same,Degeneration (on day),Lewis rats; [6],"15 day (3×) and 18, 18 day and 17 day and 18 day"
same,Hair Growth,Lewis rats; [6],"+, + (5×) and −"
same,Rejection (on day),Lewis rats; [6],"18 day (2×) and 19, 19 day and 21, 21 day and 17 day and 19 day"
same,Degeneration (on day),Lewis rats; [7],"19 day (3×) and 18 day and 18, 18 day and 11 day"
same,Hair Growth,Lewis rats; [7],"+, + (5×) and +"
same,Rejection (on day),Lewis rats; [7],"23 day and 19, 19 day and 21, 21 day and 13 day and 20 day and 22 day"
same,% positive,lymph node cells [3]; antibody 0X6,10.0%
same,F^L,lymph node cells [3]; antibody 0X6,1208
same,% CHANGE IN POSITIVES,"lymph node cells [3]; antibody 0X6, lectin vs control",0%
same,% positive,lymph node cells [3]; antibody 0X8,30.3%
same,F^L,lymph node cells [3]; antibody 0X8 (suppressor T-cells),472
same,% CHANGE IN POSITIVES,"lymph node cells [3]; antibody 0X8, lectin vs control",+28%
same,% positive,lymph node cells [3]; antibody 0X12,9.9%
same,F^L,lymph node cells [3]; antibody 0X12,316
same,% CHANGE IN POSITIVES,"lymph node cells [3]; antibody 0X12, lectin vs control",0%
same,% positive,lymph node cells [3]; [8],16.4%
same,F^L,lymph node cells [3]; [8],129
same,% positive,lymph node cells [3]; antibody W3/13,99.5%
same,F^L,lymph node cells [3]; antibody W3/13 (total T-cells),442
same,% CHANGE IN POSITIVES,"lymph node cells [3]; antibody W3/13, lectin vs control",0%
same,% positive,lymph node cells [3]; antibody W3/25,76.5%
same,F^L,lymph node cells [3]; antibody W3/25 (helper T-cells),230
same,% CHANGE IN POSITIVES,"lymph node cells [3]; antibody W3/25, lectin vs control",−0%
same,increase in the number of rat lymph node suppressor T-cells (0X8 reactive),lymph node cells [3]; lectin-treated animals,28%
